One experiment deals with P. aeruginosa. As to the kind of experiment: Minimal inhibitory concentration. To be noted: Pseudomonas aeruginosa. The class given is cell-based.
Experiment [1] deals with P. aeruginosa embedded in pre-formed biofilm. As to the kind of experiment: Viability of P. aeruginosa embedded in pre-formed biofilm (BacTiter-Glo). The experiment is classed as cell-based, Pseudomonas aeruginosa. Particulars: 24 h biofilm, 6 hours treatment; RLU converted to cCFU. The method, then:
To test the effect of phage on biofilm, starters of the relevant bacteria were grown overnight. Three isolated single colonies of the relevant strains were picked into 3 mL TSB and shook overnight at 37° C., 180 rpm, to an OD600>1, one starter used for each of two biological repeats. The next day, the starters were dispersed in 96 wells plate and the biofilm was left to form for 24 hours: cultures were diluted 1:100 in 3 mL fresh TSB (Tryptic Soy Broth) medium and OD600 was adjusted to ˜0.05 (˜4×10^7 CFU/mL). 200 μL of the diluted inoculums were added per well in a 96 well culture plate (Biofil, cat #TCP-011-096) according to the plate layout. 200 μL TSB was used for blank wells. […] After the incubation period, the supernatant was carefully removed (media, waste, phages/antibiotics, and planktonic cells) the biofilm was washed again with 200 μL PBS (Phosphate-buffered saline, Hylabs, cat #BP655) and its biomass measured (staining with crystal violet (CV) and/or viable cells (plating for CFU enumeration).
For host cells viability assessment, the BacTiter-Glo (Promega, cat #G8231) method was used. The method measures viable bacterial cells based on quantification of the ATP present in the viable cells. The readout is a luminescent signal (in relative light units (RLU)) in an ATP-dependent reaction. […]

Experiment [2] relates to Pseudomonas aeruginosa strains 883, 762, PAO1. As to the kind of experiment: Synergism with antibiotic in liquid infection (OD600 growth curves). The experiment is classed as cell-based. The method, then:
To test the efficacy of the phage and antibiotics in liquid culture, bacterial host cells were grown overnight in TSB at 37° C. with shaking at 180 rpm to OD600>1.5. In addition, each phage was diluted to a concentration of 5×10^7 PFU/ml in TSB and used individually or combined equally with other phages into a cocktail. Then, 1 mM ions were added, and 200 μL was dispensed per well in a 96-well plate to a final concentration of […]. For no phage control (NPC), TSB containing 1 mM ions was used. Antibiotics was added to the relevant wells (aztreonam 4 μg/mL, colistin 2 μg/mL for “883,” 4 μg/mL for “762” and 6 μg/mL for PAO1). Then, 2 μL of the bacterial culture was added to the wells (dilution of 1:100). TSB containing 1 mM ions was used as NPC. Two repeats were done for each treatment, and TSB media served as a blank. 50 μL of mineral oil added were added to each well to reduce evaporation of the samples, and the plate was covered with a sterile film to allow for bacterial growth and keep the culture sterile. Plates were incubated for approximately 30 hours in a plate reader at 37° C. with shaking, and OD600 was measured every 20 minutes. Two biological repeats were performed for the assay.

SMILES strings stand for the structures. Converted amounts (≈) assume the structure as drawn.

As a reminder, the MIC is the lowest concentration found to suppress growth. In the experiment with P. aeruginosa, `C[C@@H](O)[C@H]1C(=O)N2C(C(=O)O)=C(SCCN=CN)C[C@H]12` [antibiotic, imipenem] had an MIC of 4 µg/mL (≈ 13.4 µM). Also, the “reduction of bacterial burden of embedded PsA” value in experiment [1] is reported as about 1 logs.
On to `C[C@H]1[C@H](NC(=O)/C(=N\OC(C)(C)C(=O)O)c2csc(N)n2)C(=O)N1S(=O)(=O)O` [aztreonam], for which the “effect on bacterial growth / appearance of bacteria mutants” value in experiment [2] (PsA strains (e.g., PAO1, 883)) is “slower bacterial growth throughout the observed period”.
For `NC[C@H]1O[C@H](O[C@H]2[C@H](O)[C@@H](O[C@H]3O[C@H](CO)[C@@H](O)[C@H](N)[C@H]3O)[C@H](N)C[C@@H]2N)[C@H](N)C[C@@H]1O` [Tobramycin, tobramycin], the “time growth was suppressed” value in experiment [2] (PsA strains, single treatment alone) was “approximately 25 hours”.
